Data: the NIST ThermoML archive (doi:10.1016/j.jct.2007.03.011)
“And” between values parts separate entries of the source, which are not always exact repeats. Equal values may be shown once. ± gives the expanded uncertainty stated by the source.

Conditions: Liquid, Transpiration method

With `N#CCCO` [3-hydroxypropanenitrile] the “vapor or sublimation pressure” value (306.3 K) was 0.01564 ± 0.00078 kPa, the “vapor or sublimation pressure” value (311.3 K) was 0.02299 ± 0.0011 kPa and the “vapor or sublimation pressure” value (314.3 K) was 0.02755 ± 0.0014 kPa. The “vapor or sublimation pressure” value (317.3 K) was 0.03639 ± 0.0018 kPa, the “vapor or sublimation pressure” value (318.6 K) was 0.03759 ± 0.0019 kPa and the “vapor or sublimation pressure” value (321.4 K) was 0.04504 ± 0.0023 kPa. For the same compound, the “vapor or sublimation pressure” value (321.7 K) was 0.04955 ± 0.0025 kPa, the “vapor or sublimation pressure” value (323.3 K) was 0.05382 ± 0.0027 kPa and the “vapor or sublimation pressure” value (325.4 K) was 0.06297 ± 0.0032 kPa. For the same compound, the “vapor or sublimation pressure” value (326.3 K) was 0.06361 ± 0.0032 kPa, the “vapor or sublimation pressure” value (328.6 K) was 0.07507 ± 0.0038 kPa and the “vapor or sublimation pressure” value (331.4 K) was 0.08563 ± 0.0043 kPa and 0.09147 ± 0.0046 kPa. The “vapor or sublimation pressure” value (333.4 K) was 0.1054 ± 0.0053 kPa, the “vapor or sublimation pressure” value (336.3 K) was 0.1286 ± 0.0065 kPa and the “vapor or sublimation pressure” value (336.4 K) was 0.1232 ± 0.0063 kPa. For the same compound, the “vapor or sublimation pressure” value (338.5 K) was 0.1442 ± 0.0072 kPa, the “vapor or sublimation pressure” value (340.4 K) was 0.1598 ± 0.008 kPa and the “vapor or sublimation pressure” value (341.5 K) was 0.1816 ± 0.0091 kPa. The “vapor or sublimation pressure” value (343.4 K) was 0.2025 ± 0.01 kPa, the “vapor or sublimation pressure” value (346.6 K) was 0.2592 ± 0.013 kPa and the “vapor or sublimation pressure” value (351.7 K) was 0.3404 ± 0.017 kPa. For the same compound, the “vapor or sublimation pressure” value (356.8 K) was 0.4425 ± 0.022 kPa and the “vapor or sublimation pressure” value (361.8 K) was 0.5765 ± 0.029 kPa.
